Read-outs that look alike come from different tables or passages of the source.
What was measured:
[1] = Biodistribution in U87MG tumor-bearing mice; assay type: in vivo; conditions: female, CD-1 nude (athymic nude), mouse, iv, total radioactivity, i.v. ~5 MBq (~1 nmol), mean ± SD; for tissue to tissue ratio at 0.5 h / tissue uptake at 0.5 h: 30 min p.i.; for tissue to tissue ratio at 5 h / tissue uptake at 5 h: 5 h p.i.
Description: Female athymic nude mice (CD-1 nude), age 5–6 weeks, were obtained from Charles River Laboratories, Sulzfeld, Germany. U87MG cells and AR42J-cells were suspended in PBS (5 × 10^6 cells in 100 μL) and subcutaneously inoculated on each shoulder. Two to three weeks later, when the tumor reached a size of about 300–500 mm^3, the mice were used for the in vivo studies.
Biodistribution studies were performed with U87MG tumor and AR42J tumor-bearing mice 2 weeks after tumor cell inoculation. ^44Sc- and ^68Ga-labeled peptides (~5 MBq, ~1 nmol per mouse) were intravenously injected in a volume of 100–200 μL. Mice were sacrificed at 30 min, 2 h and 5 h after injection (p.i.) of the ^44Sc-labeled peptides. Mice which were injected with ^68Ga-labeled peptides were sacrificed at 30 min and 2 h p.i. Selected tissues and organs were collected, weighed, and counted for radioactivity using a γ-counter (Wallac Wizard 1480, Perkin Elmer). The results were listed as a percentage of the injected activity per gram of tissue mass (% IA/g), using counts of a defined volume of the original injection solution counted at the same time. The data were analyzed for significance using a two-way ANOVA test (Graph Pad Prism 6 software, version 6.05). A p-value of < 0.05 was considered statistically significant.

U87MG tumor-bearing mice = test: PET/CT imaging of U87MG tumor-bearing mice; assay type: in vivo; conditions: 3 h after i.v. injection of ~10 MBq (~1 nmol), one or two mice
Description: The energy window was set to 150–650 keV. […] All static PET scans lasted for 20 min.

[2] = U87MG tumor / blood, n=3, read-out: Tumor-to-blood ratio
[3] = U87MG tumor / kidneys, n=3, read-out: Tumor-to-kidney ratio
[4] = U87MG tumor / liver, n=3, read-out: Tumor-to-liver ratio
[5] = U87MG tumor, n=3, read-out: Biodistribution, U87MG Tumor
[6] = blood, 5 MBq per mouse, n=3, read-out: Biodistribution, Blood
[7] = bone, 5 MBq per mouse, n=3, read-out: Biodistribution, Bone
[8] = brain, 5 MBq per mouse, n=3, read-out: Biodistribution, Brain
[9] = heart, 5 MBq per mouse, n=3, read-out: Biodistribution, Heart
[10] = intestines, 5 MBq per mouse, n=3, read-out: Biodistribution, Intestines
[11] = kidneys, n=3, read-out: Biodistribution, Kidneys
[12] = liver, n=3, read-out: Biodistribution, Liver
[13] = lung, 5 MBq per mouse, n=3, read-out: Biodistribution, Lung
[14] = muscle, 5 MBq per mouse, n=3, read-out: Biodistribution, Muscle
[15] = skin, 5 MBq per mouse, n=3, read-out: Biodistribution, Skin
[16] = spleen, 5 MBq per mouse, n=3, read-out: Biodistribution, Spleen
[17] = stomach, 5 MBq per mouse, n=3, read-out: Biodistribution, Stomach

N=C(N)NCCC[C@@H]1NC(=O)[C@H](CCCCNC(=O)CCC(C(=O)O)N2CCN(CC(=O)O)CCN(CC(=O)O)CC2)NC(=O)[C@@H](Cc2ccc(O)cc2)NC(=O)[C@H](CC(=O)O)NC(=O)CNC1=O (some centres unmarked) [^44Sc-NODAGA-RGD, metal not drawn]
tissue to tissue ratio at 0.5 h [1, 2]: 4.73 ± 1.24
tissue to tissue ratio at 5 h [1, 2]: 30.5 ± 9.93
tissue to tissue ratio at 0.5 h [1, 3]: 1.18 ± 0.28
tissue to tissue ratio at 2 h ([1]; U87MG tumor / kidneys, 2 h p.i., n=3, read-out: Tumor-to-kidney ratio): 2.68 ± 0.14
tissue to tissue ratio at 5 h [1, 3]: 2.58 ± 0.24
tissue to tissue ratio at 0.5 h [1, 4]: 3.02 ± 0.4
tissue to tissue ratio at 5 h [1, 4]: 2.82 ± 0.21
tissue uptake at 0.5 h [1, 5]: 4.5 ± 0.77 %ID/g
tissue uptake at 5 h [1, 5]: 3.01 ± 0.55 %ID/g
tissue uptake at 0.5 h [1, 6]: 0.98 ± 0.21 %ID/g
tissue uptake at 5 h [1, 6]: 0.11 ± 0.07 %ID/g
tissue uptake at 0.5 h [1, 7]: 1.53 ± 0.16 %ID/g
tissue uptake at 5 h [1, 7]: 0.76 ± 0.03 %ID/g
tissue uptake at 0.5 h [1, 8]: 0.1 ± 0.01 %ID/g
tissue uptake at 5 h [1, 8]: 0.06 ± 0.01 %ID/g
tissue uptake at 0.5 h [1, 9]: 0.89 ± 0.13 %ID/g
tissue uptake at 2 h ([1]; heart, 5 MBq per mouse, 2 h p.i., n=3, read-out: Biodistribution, Heart): 0.44 ± 0.04 %ID/g
tissue uptake at 5 h [1, 9]: 0.35 ± 0.13 %ID/g
tissue uptake at 0.5 h [1, 10]: 1.76 ± 0.22 %ID/g
tissue uptake at 2 h ([1]; intestines, 5 MBq per mouse, 2 h p.i., n=3, read-out: Biodistribution, Intestines): 0.91 ± 0.16 %ID/g
tissue uptake at 5 h [1, 10]: 0.75 ± 0.13 %ID/g
tissue uptake at 2 h ([1]; kidneys, 5 MBq per mouse, 2 h p.i., n=3, read-out: Biodistribution, Kidneys): 1.5 ± 0.3 %ID/g
tissue uptake at 0.5 h [1, 11]: 3.89 ± 0.68 %ID/g
tissue uptake at 5 h [1, 11]: < 2 %ID/g
tissue uptake at 0.5 h [1, 12]: 1.49 ± 0.06 %ID/g
tissue uptake at 2 h ([1]; liver, 2 h p.i., n=3, read-out: Biodistribution, Liver): 1.34 ± 0.27 %ID/g
tissue uptake at 5 h [1, 12]: ~1 %ID/g
tissue uptake at 0.5 h [1, 13]: 2.2 ± 0.68 %ID/g
tissue uptake at 5 h [1, 13]: 0.65 ± 0.16 %ID/g
tissue uptake at 0.5 h [1, 14]: 0.68 ± 0.03 %ID/g
tissue uptake at 5 h [1, 14]: 0.3 ± 0.06 %ID/g
tissue uptake at 2 h ([1]; pancreas, 5 MBq per mouse, 2 h p.i., n=3, read-out: Biodistribution, pancreas): 0.43 ± 0.04 %ID/g
tissue uptake at 5 h ([1]; pancreas, 5 MBq per mouse, n=3, read-out: Biodistribution, pancreas): 0.37 ± 0.07 %ID/g
tissue uptake at 0.5 h ([1]; pancreas, n=3, read-out: Biodistribution, pancreas): 0.73 ± 0.22 %ID/g
tissue uptake at 0.5 h [1, 15]: 1.97 ± 0.17 %ID/g
tissue uptake at 2 h ([1]; skin, 5 MBq per mouse, 2 h p.i., n=3, read-out: Biodistribution, Skin): 1.3 ± 0.13 %ID/g
tissue uptake at 5 h [1, 15]: 1.21 ± 0.34 %ID/g
tissue uptake at 0.5 h [1, 16]: 1.63 ± 0.21 %ID/g
tissue uptake at 2 h ([1]; spleen, 5 MBq per mouse, 2 h p.i., n=3, read-out: Biodistribution, Spleen): 1.58 ± 0.31 %ID/g
tissue uptake at 5 h [1, 16]: 0.95 ± 0.19 %ID/g
tissue uptake at 0.5 h [1, 17]: 1.69 ± 0.16 %ID/g
tissue uptake at 2 h ([1]; stomach, 5 MBq per mouse, 2 h p.i., n=3, read-out: Biodistribution, Stomach): 1.01 ± 0.32 %ID/g
tissue uptake at 5 h [1, 17]: 0.8 ± 0.03 %ID/g
PET/CT distribution of radioactivity (in words) (U87MG tumor-bearing mice): comparable to ^68Ga-NODAGA-RGD but showed somewhat more background activity in the abdominal tract

— PMC5843811, “^44Sc for labeling of DOTA- and NODAGA-functionalized peptides: preclinical in vitro and in vivo investigations” (EJNMMI Radiopharmacy and Chemistry, 2016)
